ChEMBL document CHEMBL1201861, “Genomics of Drug Sensitity in Cancer screening data, Wellcome Trust Sanger Institute”
One block for each compound: values may come before it.

Columns and labels:
TCC-SUP = assay: cells; type: functional, cell-based, Homo sapiens; conditions: Homo sapiens, TCC-SUP;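 further: growth inhibition of TCC-SUP cells, read out with a cell viability assay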
Description: SANGER: Inhibition of human TCCSUP cell growth in a cell viability assay.

U-118-MG = assay: cells; type: functional, cell-based, Homo sapiens; conditions: Homo sapiens, U-118-MG
Description: SANGER: Inhibition of human U-118-MG cell growth in a cell viability assay.

KYSE-510 = assay: cells; type: functional, cell-based, Homo sapiens; conditions: Homo sapiens, KYSE-510;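 further: cell viability readout used to measure how strongly growth of the cell line is suppressed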
Description: SANGER: Inhibition of human KYSE-510 cell growth in a cell viability assay.

OVCAR-8 = assay: cells; type: functional, cell-based, Homo sapiens; conditions: Homo sapiens, OVCAR-8;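 further: growth inhibition of human OVCAR-8 cells, read out by a cell viability assay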
Description: SANGER: Inhibition of human OVCAR-8 cell growth in a cell viability assay.

KYSE-180 = assay: cells; type: functional, cell-based, Homo sapiens; conditions: Homo sapiens, KYSE-180;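 further: growth inhibition of KYSE-180 cells, read out with a cell viability assay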
Description: SANGER: Inhibition of human KYSE-180 cell growth in a cell viability assay.

KYSE-70 cell line = assay: cells; type: functional, cell-based, Homo sapiens; conditions: Homo sapiens, KYSE-70;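 further: cell viability assay read-out, with IC50 expressing suppression of KYSE-70 cell growth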
Description: SANGER: Inhibition of human KYSE-70 cell growth in a cell viability assay.

SW626 = assay: cells; type: functional, cell-based, Homo sapiens; conditions: Homo sapiens, SW626;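 further: growth inhibition of SW626 cells, measured with a cell viability assay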
Description: SANGER: Inhibition of human SW626 cell growth in a cell viability assay.

YKG-1 = assay: cells; type: functional, cell-based, Homo sapiens; conditions: Homo sapiens, YKG-1;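 further: cell growth inhibition, read out with a viability assay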
Description: SANGER: Inhibition of human YKG-1 cell growth in a cell viability assay.

NCI-H522 = assay: cells; type: functional, cell-based, Homo sapiens; conditions: Homo sapiens, NCI-H522;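 further: cell viability assay measuring growth inhibition of human NCI-H522 cells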
Description: SANGER: Inhibition of human NCI-H522 cell growth in a cell viability assay.

SNU-423 = assay: cells; type: functional, cell-based, Homo sapiens; conditions: Homo sapiens, SNU-423
Description: SANGER: Inhibition of human SNU-423 cell growth in a cell viability assay.

SF-295 = assay: cells; type: functional, cell-based, Homo sapiens; conditions: Homo sapiens, SF-295;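 further: growth inhibition of SF-295 cells, read out with a cell viability assay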
Description: SANGER: Inhibition of human SF295 cell growth in a cell viability assay.

COLO-678 = assay: cells; type: functional, cell-based, Homo sapiens; conditions: Homo sapiens, COLO-678
Description: SANGER: Inhibition of human COLO-678 cell growth in a cell viability assay.

COLO-741 = assay: cells; type: functional, cell-based, Homo sapiens; conditions: Homo sapiens, COLO-741
Description: SANGER: Inhibition of human COLO-741 cell growth in a cell viability assay.

647-V = assay: cells; type: functional, cell-based, Homo sapiens; conditions: Homo sapiens, 647-V;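 further: growth inhibition of 647-V cells, read out with a cell viability assay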
Description: SANGER: Inhibition of human 647-V cell growth in a cell viability assay.

NCI-H1651 = assay: cells; type: functional, cell-based, Homo sapiens; conditions: Homo sapiens, NCI-H1651;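 further: Read-out is a cell viability assay, with IC50 expressing inhibition of NCI-H1651 cell growth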
Description: SANGER: Inhibition of human NCI-H1651 cell growth in a cell viability assay.

HPAF-II = assay: cells; type: functional, cell-based, Homo sapiens; conditions: Homo sapiens, HPAF-II;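 further: growth inhibition of HPAF-II cells, read out with a cell viability assay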
Description: SANGER: Inhibition of human HPAF-II cell growth in a cell viability assay.

Hs-578T = assay: cells; type: functional, cell-based, Homo sapiens; conditions: Homo sapiens, Hs-578T
Description: SANGER: Inhibition of human Hs-578-T cell growth in a cell viability assay.

SK-OV-3 = assay: cells; type: functional, cell-based, Homo sapiens; conditions: Homo sapiens, SK-OV-3;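 further: growth inhibition of SK-OV-3 human cells, read out with a cell viability assay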
Description: SANGER: Inhibition of human SK-OV-3 cell growth in a cell viability assay.

HCT-116 = assay: cells; type: functional, cell-based, Homo sapiens; conditions: Homo sapiens, HCT-116
Description: SANGER: Inhibition of human HCT-116 cell growth in a cell viability assay.

HN = assay: cells; type: functional, cell-based, Homo sapiens; conditions: Homo sapiens, HN
Description: SANGER: Inhibition of human HN cell growth in a cell viability assay.

KYSE-520 cell line = assay: cells; type: functional, cell-based, Homo sapiens; conditions: Homo sapiens, KYSE-520;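 further: growth inhibition of human KYSE-520 cells, read out with a viability assay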
Description: SANGER: Inhibition of human KYSE-520 cell growth in a cell viability assay.

PFSK-1 = assay: cells; type: functional, cell-based, Homo sapiens; conditions: Homo sapiens, PFSK-1;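 further: cell viability assay measuring how strongly compounds suppress growth of human PFSK-1 cells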
Description: SANGER: Inhibition of human PFSK-1 cell growth in a cell viability assay.

M059J = assay: cells; type: functional, cell-based, Homo sapiens; conditions: Homo sapiens, M059J;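 further: growth inhibition of M059J cells, read out with a cell viability assay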
Description: SANGER: Inhibition of human M059J cell growth in a cell viability assay.

Daoy = assay: cells; type: functional, cell-based, Homo sapiens; conditions: Homo sapiens, Daoy;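 further: daoy cell growth inhibition, read out as cell viability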
Description: SANGER: Inhibition of human Daoy cell growth in a cell viability assay.

KOSC-2 = assay: cells; type: functional, cell-based, Homo sapiens; conditions: Homo sapiens, KOSC-2;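 further: growth inhibition of KOSC-2 cells, read out by a cell viability assay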
Description: SANGER: Inhibition of human KOSC-2 cell growth in a cell viability assay.

HCC1806 = assay: cells; type: functional, cell-based, Homo sapiens; conditions: Homo sapiens, HCC1806;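 further: growth inhibition of the cancer cell line, determined with a cell viability assay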
Description: SANGER: Inhibition of human HCC1806 cell growth in a cell viability assay.

NCI-H1755 = assay: cells; type: functional, cell-based, Homo sapiens; conditions: Homo sapiens, NCI-H1755;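 further: cell viability readout used to measure growth inhibition of NCI-H1755 cells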
Description: SANGER: Inhibition of human NCI-H1755 cell growth in a cell viability assay.

SK-MEL-28 = assay: cells; type: functional, cell-based, Homo sapiens; conditions: Homo sapiens, SK-MEL-28;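 further: growth inhibition of human SK-MEL-28 cells, read out with a cell viability assay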
Description: SANGER: Inhibition of human SK-MEL-28 cell growth in a cell viability assay.

ChaGo-K-1 = assay: cells; type: functional, cell-based, Homo sapiens; conditions: Homo sapiens, ChaGo-K-1;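 further: growth inhibition of ChaGo-K-1 cells, read out with a cell viability assay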
Description: SANGER: Inhibition of human ChaGo-K-1 cell growth in a cell viability assay.

MEL-HO = assay: cells; type: functional, cell-based, Homo sapiens; conditions: Homo sapiens, MEL-HO
Description: SANGER: Inhibition of human MEL-HO cell growth in a cell viability assay.

G-361 = assay: cells; type: functional, cell-based, Homo sapiens; conditions: Homo sapiens, G-361
S-117 = assay: cells; type: functional, cell-based, Homo sapiens; conditions: Homo sapiens, S-117
Description: SANGER: Inhibition of human S-117 cell growth in a cell viability assay.

SNU-449 = assay: cells; type: functional, cell-based, Homo sapiens; conditions: Homo sapiens, SNU-449
Description: SANGER: Inhibition of human SNU-449 cell growth in a cell viability assay.

SCC-3 = assay: cells; type: functional, cell-based, Homo sapiens; conditions: Homo sapiens, SCC-3;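 further: cell viability assay measuring inhibition of SCC-3 cell growth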
Description: SANGER: Inhibition of human SCC-3 cell growth in a cell viability assay.

SCLC-21H = assay: cells; type: functional, cell-based, Homo sapiens; conditions: Homo sapiens, SCLC-21H;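 further: growth inhibition of cultured human SCLC-21H cells, read out with a cell viability assay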
Description: SANGER: Inhibition of human SCLC-21H cell growth in a cell viability assay.

THP-1 = assay: cells; type: functional, cell-based, Homo sapiens; conditions: Homo sapiens, THP-1;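 further: growth inhibition of THP-1 cells, read out via a cell viability assay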
Description: SANGER: Inhibition of human THP-1 cell growth in a cell viability assay.

NCI-H748 = assay: cells; type: functional, cell-based, Homo sapiens; conditions: Homo sapiens, NCI-H748;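 further: growth inhibition of NCI-H748 cells, measured by a cell viability assay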
Description: SANGER: Inhibition of human NCI-H748 cell growth in a cell viability assay.

SUP-T1 = assay: cells; type: functional, cell-based, Homo sapiens; conditions: Homo sapiens, SUP-T1;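 further: growth inhibition of human SUP-T1 cells, read out as cell viability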
Description: SANGER: Inhibition of human SUP-T1 cell growth in a cell viability assay.

NCI-H719 = assay: cells; type: functional, cell-based, Homo sapiens; conditions: Homo sapiens, NCI-H719;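 further: growth inhibition of the cultured cell line, read out with a viability assay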
Description: SANGER: Inhibition of human NCI-H719 cell growth in a cell viability assay.

ARH-77 = assay: cells; type: functional, cell-based, Homo sapiens; conditions: Homo sapiens, ARH-77;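 further: growth inhibition of ARH-77 cells, read out by a cell viability assay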
Description: SANGER: Inhibition of human ARH-77 cell growth in a cell viability assay.

RL = assay: cells; type: functional, cell-based, Homo sapiens; conditions: Homo sapiens, RL
Description: SANGER: Inhibition of human RL cell growth in a cell viability assay.

NCI-H2196 = assay: cells; type: functional, cell-based, Homo sapiens; conditions: Homo sapiens, NCI-H2196;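 further: cell viability assay used as the readout of growth inhibition in NCI-H2196 cells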
Description: SANGER: Inhibition of human NCI-H2196 cell growth in a cell viability assay.

COR-L279 = assay: SANGER: Inhibition of human COR-L279 cell growth in a cell viability assay.; type: functional, cell-based; conditions: Homo sapiens, COR-L279
NB1 = assay: cells; type: functional, cell-based, Homo sapiens; conditions: Homo sapiens, NB1;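 further: reduction of NB1 cell proliferation, read out with a viability assay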
Description: SANGER: Inhibition of human NB1 cell growth in a cell viability assay.

LC4-1 = assay: cells; type: functional, cell-based, Homo sapiens; conditions: Homo sapiens, LC4-1;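 further: growth inhibition of LC4-1 cells, read out with a cell viability assay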
Description: SANGER: Inhibition of human LC4-1 cell growth in a cell viability assay.

CHP-126 = assay: cells; type: functional, cell-based, Homo sapiens; conditions: Homo sapiens, CHP-126
Description: SANGER: Inhibition of human CHP-126 cell growth in a cell viability assay.

JIYOYE = assay: cells; type: functional, cell-based, Homo sapiens; conditions: Homo sapiens, JIYOYE
Description: SANGER: Inhibition of human JiyoyeP-2003 cell growth in a cell viability assay.

LP-1 = assay: cells; type: functional, cell-based, Homo sapiens; conditions: Homo sapiens, LP-1;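 further: growth inhibition of human LP-1 cells, with the read-out taken from a cell viability assay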
Description: SANGER: Inhibition of human LP-1 cell growth in a cell viability assay.

IC50 (TCC-SUP): 361 nM
IC50 (U-118-MG): 190 nM
IC50 (KYSE-510): 222 nM
IC50 (OVCAR-8): 471 nM
IC50 (KYSE-180): 185 nM
IC50 (KYSE-70 cell line): 5310 nM
IC50 (SW626): 423 nM
IC50 (YKG-1): 29.8 nM
IC50 (NCI-H522): 2080 nM
IC50 (SNU-423): 325 nM
IC50 (SF-295): 629 nM
IC50 (COLO-678): 3310 nM
IC50 (COLO-741): 1370 nM
IC50 (647-V): 88.4 nM
IC50 (NCI-H1651): 1000 nM
IC50 (HPAF-II): 228 nM
IC50 (Hs-578T): 23.6 nM
IC50 (SK-OV-3): 527 nM
IC50 (HCT-116): 52.7 nM
IC50 (HN): 231 nM
IC50 (KYSE-520 cell line): 4140 nM
IC50 (PFSK-1): 177 nM
IC50 (M059J): 1300 nM
IC50 (Daoy): 141 nM
IC50 (KOSC-2): 496 nM
IC50 (HCC1806): 1430 nM
IC50 (NCI-H1755): 1620 nM
IC50 (SK-MEL-28): 1390 nM
IC50 (ChaGo-K-1): 296 nM
IC50 (MEL-HO): 88.2 nM
IC50 (G-361): 125 nM
IC50 (S-117): 213 nM
IC50 (SNU-449): 372 nM
Compound: CC(C)c1ccccc1Cc1cc(C(=O)Nc2ccc(S(=O)(=O)c3ccccc3C(C)(C)C)cc2)c(O)c(O)c1O

Compound: CC(C)CCN1c2nc(Nc3cc(F)c(O)c(F)c3)ncc2N(C)C(=O)C1C (stereo not drawn)
IC50 (TCC-SUP): > 5000 nM
IC50 (U-118-MG): > 5000 nM
IC50 (KYSE-510): 4260 nM
IC50 (OVCAR-8): > 5000 nM
IC50 (KYSE-180): > 5000 nM
IC50 (KYSE-70 cell line): > 5000 nM
IC50 (SW626): 4900 nM
IC50 (YKG-1): 1980 nM
IC50 (NCI-H522): > 5000 nM
IC50 (SNU-423): > 5000 nM
IC50 (SF-295): > 5000 nM
IC50 (COLO-678): > 5000 nM
IC50 (COLO-741): > 5000 nM
IC50 (647-V): > 5000 nM
IC50 (NCI-H1651): > 5000 nM
IC50 (HPAF-II): > 5000 nM
IC50 (Hs-578T): > 5000 nM
IC50 (SK-OV-3): > 5000 nM
IC50 (HCT-116): > 5000 nM
IC50 (HN): 1610 nM
IC50 (KYSE-520 cell line): > 5000 nM
IC50 (PFSK-1): > 5000 nM
IC50 (M059J): 3710 nM
IC50 (Daoy): 988 nM
IC50 (KOSC-2): 1130 nM
IC50 (HCC1806): > 5000 nM
IC50 (NCI-H1755): > 5000 nM
IC50 (SK-MEL-28): > 5000 nM
IC50 (ChaGo-K-1): > 5000 nM
IC50 (MEL-HO): > 5000 nM
IC50 (G-361): 2120 nM
IC50 (S-117): > 5000 nM
IC50 (SNU-449): > 5000 nM

Compound: COc1cccc2c1C(=O)c1c(O)c3c(c(O)c1C2=O)C[C@@](O)(C(=O)CO)C[C@@H]3O[C@H]1C[C@H](N)[C@H](O)[C@H](C)O1 [DOXORUBICIN]
IC50 (TCC-SUP): > 1020 nM
IC50 (SCC-3): 67.3 nM
IC50 (SCLC-21H): > 1020 nM
IC50 (U-118-MG): 856 nM
IC50 (THP-1): 989 nM
IC50 (KYSE-510): 15.5 nM
IC50 (NCI-H748): 147 nM
IC50 (OVCAR-8): 61.9 nM
IC50 (KYSE-180): 59.8 nM
IC50 (KYSE-70 cell line): 225 nM
IC50 (SW626): 112 nM
IC50 (YKG-1): 18.8 nM
IC50 (SUP-T1): 79.7 nM
IC50 (NCI-H522): 51.9 nM
IC50 (SNU-423): 155 nM
IC50 (NCI-H719): 39.7 nM
IC50 (ARH-77): 110 nM
IC50 (SF-295): 49.1 nM
IC50 (COLO-678): 427 nM
IC50 (COLO-741): 195 nM
IC50 (647-V): 18.8 nM
IC50 (NCI-H1651): 11.8 nM
IC50 (RL): > 1020 nM
IC50 (HPAF-II): 527 nM
IC50 (Hs-578T): > 1020 nM
IC50 (NCI-H2196): 229 nM
IC50 (SK-OV-3): 50.1 nM
IC50 (COR-L279): 56.9 nM
IC50 (HN): 354 nM
IC50 (KYSE-520 cell line): 261 nM
IC50 (NB1): 46 nM
IC50 (PFSK-1): 678 nM
IC50 (M059J): 31.4 nM
IC50 (LC4-1): 241 nM
IC50 (Daoy): 8.07 nM
IC50 (KOSC-2): 249 nM
IC50 (CHP-126): 59.2 nM
IC50 (JIYOYE): 138 nM
IC50 (HCC1806): 75 nM
IC50 (LP-1): > 1020 nM
IC50 (NCI-H1755): 874 nM
IC50 (SK-MEL-28): > 1020 nM
IC50 (ChaGo-K-1): 108 nM
IC50 (MEL-HO): 18.3 nM
IC50 (G-361): 27.9 nM
IC50 (S-117): > 1020 nM
IC50 (SNU-449): 548 nM
